Literature values as cited in patent publication US7829688B2, “Peptides of CaV2.2 that inhibit pain” (The Board of Regents of the University of Texas System, priority 2004, dated 2010).

Target: T1, N-type Ca2+ channels (Rattus norvegicus, UniProt Q02294, C1579L/DEL1236-1239/DEL415-415/E177G/INS1558ET)
T1 construct: host or cells: rat, in vivo (Malmberg and Yaksh, 1994, 1995)
Conditions: in vivo; cited from earlier work

T1 sequence (Q02294 whole entry, looked up, stated change not applied): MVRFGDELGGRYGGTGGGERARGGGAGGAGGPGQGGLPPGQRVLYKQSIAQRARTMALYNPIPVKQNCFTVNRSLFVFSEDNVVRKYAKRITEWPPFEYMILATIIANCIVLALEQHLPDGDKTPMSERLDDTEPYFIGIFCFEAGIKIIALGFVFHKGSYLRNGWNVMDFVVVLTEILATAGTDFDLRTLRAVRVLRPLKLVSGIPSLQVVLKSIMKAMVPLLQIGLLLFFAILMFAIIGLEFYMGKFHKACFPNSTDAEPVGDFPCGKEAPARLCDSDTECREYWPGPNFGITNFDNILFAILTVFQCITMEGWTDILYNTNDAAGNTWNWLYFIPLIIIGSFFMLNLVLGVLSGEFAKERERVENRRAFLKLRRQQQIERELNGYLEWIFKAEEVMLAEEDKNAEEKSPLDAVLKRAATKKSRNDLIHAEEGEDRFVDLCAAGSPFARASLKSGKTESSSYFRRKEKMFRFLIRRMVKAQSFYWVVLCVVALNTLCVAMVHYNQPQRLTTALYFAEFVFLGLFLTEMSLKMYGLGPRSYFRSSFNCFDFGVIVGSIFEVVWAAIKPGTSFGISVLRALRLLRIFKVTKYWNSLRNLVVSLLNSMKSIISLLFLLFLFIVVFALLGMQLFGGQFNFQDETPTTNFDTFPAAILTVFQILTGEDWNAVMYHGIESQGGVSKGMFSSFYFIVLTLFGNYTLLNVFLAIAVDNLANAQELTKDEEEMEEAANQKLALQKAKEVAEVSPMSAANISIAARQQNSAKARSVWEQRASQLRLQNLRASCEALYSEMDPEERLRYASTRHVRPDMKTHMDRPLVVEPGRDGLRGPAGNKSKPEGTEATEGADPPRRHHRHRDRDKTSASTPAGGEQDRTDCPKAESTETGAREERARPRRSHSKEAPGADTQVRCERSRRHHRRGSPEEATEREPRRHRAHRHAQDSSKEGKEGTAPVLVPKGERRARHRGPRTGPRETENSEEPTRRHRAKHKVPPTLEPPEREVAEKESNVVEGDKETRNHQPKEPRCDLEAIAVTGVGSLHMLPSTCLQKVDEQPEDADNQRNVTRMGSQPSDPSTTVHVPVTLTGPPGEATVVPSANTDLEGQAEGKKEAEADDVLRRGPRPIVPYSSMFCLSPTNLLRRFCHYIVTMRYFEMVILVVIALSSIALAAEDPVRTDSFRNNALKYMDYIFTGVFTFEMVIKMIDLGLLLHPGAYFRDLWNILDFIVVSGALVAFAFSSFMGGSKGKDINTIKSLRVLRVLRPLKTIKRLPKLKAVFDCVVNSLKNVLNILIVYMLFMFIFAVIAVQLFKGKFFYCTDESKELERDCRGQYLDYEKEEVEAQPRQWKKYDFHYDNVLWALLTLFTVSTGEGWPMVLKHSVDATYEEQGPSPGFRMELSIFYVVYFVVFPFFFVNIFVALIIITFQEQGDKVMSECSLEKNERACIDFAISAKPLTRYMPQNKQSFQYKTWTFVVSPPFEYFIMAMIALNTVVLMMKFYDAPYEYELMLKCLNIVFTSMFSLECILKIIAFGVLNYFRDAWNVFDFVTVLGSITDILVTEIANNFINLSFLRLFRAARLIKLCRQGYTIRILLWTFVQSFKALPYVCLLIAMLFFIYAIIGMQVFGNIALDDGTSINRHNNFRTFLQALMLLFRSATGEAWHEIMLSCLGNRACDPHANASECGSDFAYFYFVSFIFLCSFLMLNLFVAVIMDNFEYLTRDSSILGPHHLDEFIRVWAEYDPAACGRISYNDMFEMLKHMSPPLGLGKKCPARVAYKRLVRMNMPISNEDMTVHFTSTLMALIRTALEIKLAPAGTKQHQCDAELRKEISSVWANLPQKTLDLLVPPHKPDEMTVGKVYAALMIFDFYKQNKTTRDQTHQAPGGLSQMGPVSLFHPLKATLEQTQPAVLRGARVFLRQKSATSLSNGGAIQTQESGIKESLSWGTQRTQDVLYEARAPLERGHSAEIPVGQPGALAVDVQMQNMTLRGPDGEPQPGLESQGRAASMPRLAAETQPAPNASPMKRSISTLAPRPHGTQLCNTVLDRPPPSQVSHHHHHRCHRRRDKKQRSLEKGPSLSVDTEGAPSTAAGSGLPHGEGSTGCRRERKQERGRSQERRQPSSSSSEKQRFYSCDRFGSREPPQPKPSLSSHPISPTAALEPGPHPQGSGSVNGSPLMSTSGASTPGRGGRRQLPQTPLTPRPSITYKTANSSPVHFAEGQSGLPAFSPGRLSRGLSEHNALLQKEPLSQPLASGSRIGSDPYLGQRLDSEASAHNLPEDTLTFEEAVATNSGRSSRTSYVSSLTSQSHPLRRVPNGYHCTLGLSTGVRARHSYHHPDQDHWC

CSCC[C@@H]1NC(=O)[C@H](CC(C)C)NC(=O)[C@H](CCCNC(=N)N)NC(=O)[C@H](CO)NC(=O)[C@@H]2CSSC[C@@H]3NC(=O)[C@H](CO)NC(=O)CNC(=O)[C@H]([C@@H](C)O)NC(=O)[C@H](CSSC[C@H](N)C(=O)N[C@@H](CCCCN)C(=O)NCC(=O)N[C@@H](CCCCN)C(=O)NCC(=O)N[C@@H](C)C(=O)N[C@@H](CCCCN)C(=O)N2)NC(=O)[C@H](CSSC[C@@H](C(N)=O)NC(=O)[C@H](CCCCN)NC(=O)CNC(=O)[C@H](CO)NC(=O)[C@H](CCCNC(=N)N)NC3=O)NC(=O)[C@H](CC(=O)O)NC(=O)[C@H](Cc2ccc(O)cc2)NC1=O [SNX-111]
phase II formalin response: inhibited
